Experimental data as given in US20210038753A1, “BIOLOGICAL STERILIZATION INDICATOR WITH STERILANT RESISTANCE MODULATOR” (3M INNOVATIVE PROPERTIES COMPANY, priority 2014, published 2021).

Tests used:
[1] = tested on: Geobacillus stearothermophilus spores; assay: Resistance of self-contained biological indicators to hydrogen peroxide sterilization, glucosidase enzyme activity fluorescence readout (ENZ+); assay type: cell-based
Protocol: (§1) PET film (.09 mm thick) was coated with colloidal silica as described in International Publication No. WO2014/189716, which is incorporated herein by reference in its entirety. […] Separate aqueous spore coating solutions were prepared as described in Example 1 with the amino acids shown in table 4 present in the coating solutions. Two microliter aliquots (containing at least 10^6 spores) of the respective spore coating solutions were deposited onto the silica-coated PET film, forming a series of spaced-apart spots on the film. The spore coated films were dried in a 60° C. incubator for 12 minutes. Circular discs (hereinafter, “coated carriers”) of the PET film, each disc including one of the dried spots, were punched out and were used to assemble self-contained biological indicators (BI) similar to that shown in FIG. 1 of International Publication No. WO2014/189716. The coated carriers described above were placed into the “spore carrier 135” shown in FIG. 1 of International Publication No. WO2014/189716. Each self-contained BI comprised a polycarbonate outer container, a breaker, a cap, and a cap filter. Disposed inside the outer container were a coated carrier along with an ampoule media containing the nutrient medium from 3M ATTEST 1292 Rapid Readout Biological Indicators plus 5g/L methionine (as described in Example 1).
(§2) The self-contained biological indicators with different concentrations of additives (Table 4) were exposed to hydrogen peroxide sterilization in STERRAD NX sterilizer. The sterilization processes were run by manually injecting 1.0 ml of 59% hydrogen peroxide per load, unless specified otherwise. The exposure time was varied to determine the resistance profile of self-contained BIs with different additive formulations. The BIs were activated by pressing down the cap to break the media ampoule. The activated BIs were placed in a bench-top fluorimeter (3M Company, St. Paul, Minn.) to detect fluorescence.
(§3) A self-contained BI that is not completely inactivated (i.e., not all of the spores are killed by the sterilization process) will resume cellular functions upon activation of the BI. The production of glucosidase enzyme by surviving spores is an indication that at least one of the spores have not been inactivated (killed) by the sterilization process. The glucosidase enzyme cleaves the 4-methylumbelliferyl-glucoside (MUG) releasing the fluorescent methyl umbelliferone, which is detected using a bench-top fluorimeter. Growth and proliferation of spores in the self-contained biological indicator can also be detected by a pH change, which may be detected by a color change of the pH indicator in the growth medium.
(§4) Self-contained biological indicators were prepared (with various additives listed in table 4) as described above in this Example. For each additive tested, a lower range and a higher range was used as a preliminary screen to identify additives modulated the resistance of the spores to the sterilant. Five self-contained BIs representing each condition were exposed to hydrogen peroxide sterilization in STERRAD NX sterilizer. The sterilization processes used a constant injection volume (1.0 ml of 59% hydrogen peroxide) and various times (e.g., 20 seconds to 7 minutes) of exposure to the hydrogen peroxide. The self-contained BIs were activated after exposure to the sterilization process and were monitored for fluorescence using a bench-top fluorimeter) and pH based color change (visually). […]
(§5) Self-contained biological indicators (with various additives listed in table 5) were prepared as described in Example 2. The self-contained biological indicators were exposed to hydrogen peroxide in a STERRAD NX sterilizer as described in Example 2. The self-contained BIs were activated after exposure to the sterilization process and were monitored for fluorescence using a bench-top fluorimeter and pH based color change (visually).

[2] = tested on: Geobacillus stearothermophilus spores; assay: Resistance of self-contained biological indicators to hydrogen peroxide sterilization, growth readout by pH colour change (GRO+); assay type: cell-based
Protocol: as §1, §2, §3, §4, §5

[3] = Table 4, modulator 0.01 weight percent in spore coating solution, H2O2 exposure 30 sec.
[4] = Table 4, modulator 0.01 weight percent in spore coating solution, H2O2 exposure 60 sec.
[5] = Table 4, modulator 0.01 weight percent in spore coating solution, H2O2 exposure 90 sec.
[6] = Table 4, modulator 0.01 weight percent in spore coating solution, H2O2 exposure 3 min.
[7] = Table 4, modulator 0.01 weight percent in spore coating solution, H2O2 exposure 7 min.
[8] = Table 4, modulator 0.1 weight percent in spore coating solution, H2O2 exposure 30 sec.
[9] = Table 4, modulator 0.1 weight percent in spore coating solution, H2O2 exposure 60 sec.
[10] = Table 4, modulator 0.1 weight percent in spore coating solution, H2O2 exposure 90 sec.
[11] = Table 4, modulator 0.1 weight percent in spore coating solution, H2O2 exposure 3 min.
[12] = Table 4, modulator 0.1 weight percent in spore coating solution, H2O2 exposure 7 min.
[13] = Table 5, modulator 0.05 weight percent in spore coating solution, H2O2 exposure 20 sec.
[14] = Table 5, modulator 0.05 weight percent in spore coating solution, H2O2 exposure 30 sec.
[15] = Table 5, modulator 0.05 weight percent in spore coating solution, H2O2 exposure 60 sec.
[16] = Table 5, modulator 0.05 weight percent in spore coating solution, H2O2 exposure 90 sec.
[17] = Table 5, modulator 0.05 weight percent in spore coating solution, H2O2 exposure 3 min.
[18] = Table 5, modulator 0.05 weight percent in spore coating solution, H2O2 exposure 7 min.
[19] = Table 5, modulator 0.1 weight percent in spore coating solution, H2O2 exposure 20 sec.
[20] = Table 5, modulator 0.1 weight percent in spore coating solution, H2O2 exposure 30 sec.
[21] = Table 5, modulator 0.1 weight percent in spore coating solution, H2O2 exposure 60 sec.
[22] = Table 5, modulator 0.1 weight percent in spore coating solution, H2O2 exposure 90 sec.
[23] = Table 5, modulator 0.1 weight percent in spore coating solution, H2O2 exposure 3 min.
[24] = Table 5, modulator 0.1 weight percent in spore coating solution, H2O2 exposure 7 min.
[25] = Table 5, modulator 0.2 weight percent in spore coating solution, H2O2 exposure 20 sec.
[26] = Table 5, modulator 0.2 weight percent in spore coating solution, H2O2 exposure 30 sec.
[27] = Table 5, modulator 0.2 weight percent in spore coating solution, H2O2 exposure 60 sec.
[28] = Table 5, modulator 0.2 weight percent in spore coating solution, H2O2 exposure 90 sec.
[29] = Table 5, modulator 0.2 weight percent in spore coating solution, H2O2 exposure 3 min.
[30] = Table 5, modulator 0.2 weight percent in spore coating solution, H2O2 exposure 7 min.
[31] = Table 5, modulator 0.4 weight percent in spore coating solution, H2O2 exposure 20 sec.
[32] = Table 5, modulator 0.4 weight percent in spore coating solution, H2O2 exposure 30 sec.
[33] = Table 5, modulator 0.4 weight percent in spore coating solution, H2O2 exposure 60 sec.
[34] = Table 5, modulator 0.4 weight percent in spore coating solution, H2O2 exposure 90 sec.
[35] = Table 5, modulator 0.4 weight percent in spore coating solution, H2O2 exposure 3 min.
[36] = Table 5, modulator 0.4 weight percent in spore coating solution, H2O2 exposure 7 min.
[37] = Table 5, modulator 0.8 weight percent in spore coating solution, H2O2 exposure 20 sec.
[38] = Table 5, modulator 0.8 weight percent in spore coating solution, H2O2 exposure 30 sec.
[39] = Table 5, modulator 0.8 weight percent in spore coating solution, H2O2 exposure 60 sec.
[40] = Table 5, modulator 0.8 weight percent in spore coating solution, H2O2 exposure 90 sec.
[41] = Table 5, modulator 0.8 weight percent in spore coating solution, H2O2 exposure 3 min.
[42] = Table 5, modulator 0.8 weight percent in spore coating solution, H2O2 exposure 7 min.

N=C(N)NCCC[C@H](N)C(=O)O [L-arginine]
percentage of self-contained biological indicators positive for glucosidase enzyme activity (ENZ+) [1, 3]: 80%
percentage of self-contained biological indicators positive for glucosidase enzyme activity (ENZ+) [1, 4]: 60%
percentage of self-contained biological indicators positive for glucosidase enzyme activity (ENZ+) [1, 5]: 0%
percentage of self-contained biological indicators positive for glucosidase enzyme activity (ENZ+) [1, 6]: 0%
percentage of self-contained biological indicators positive for glucosidase enzyme activity (ENZ+) [1, 7]: 0%
percentage of self-contained biological indicators positive for glucosidase enzyme activity (ENZ+) [1, 8]: 80%
percentage of self-contained biological indicators positive for glucosidase enzyme activity (ENZ+) [1, 9]: 0%
percentage of self-contained biological indicators positive for glucosidase enzyme activity (ENZ+) [1, 10]: 0%
percentage of self-contained biological indicators positive for glucosidase enzyme activity (ENZ+) [1, 11]: 0%
percentage of self-contained biological indicators positive for glucosidase enzyme activity (ENZ+) [1, 12]: 0%
percentage of self-contained biological indicators positive for glucosidase enzyme activity (ENZ+) [1, 13]: 100%
percentage of self-contained biological indicators positive for glucosidase enzyme activity (ENZ+) [1, 14]: 100%
percentage of self-contained biological indicators positive for glucosidase enzyme activity (ENZ+) [1, 15]: 67%
percentage of self-contained biological indicators positive for glucosidase enzyme activity (ENZ+) [1, 16]: 0%
percentage of self-contained biological indicators positive for glucosidase enzyme activity (ENZ+) [1, 17]: 0%
percentage of self-contained biological indicators positive for glucosidase enzyme activity (ENZ+) [1, 18]: 0%
percentage of self-contained biological indicators positive for glucosidase enzyme activity (ENZ+) [1, 19]: 100%
percentage of self-contained biological indicators positive for glucosidase enzyme activity (ENZ+) [1, 20]: 100%
percentage of self-contained biological indicators positive for glucosidase enzyme activity (ENZ+) [1, 21]: 33%
percentage of self-contained biological indicators positive for glucosidase enzyme activity (ENZ+) [1, 22]: 0%
percentage of self-contained biological indicators positive for glucosidase enzyme activity (ENZ+) [1, 23]: 0%
percentage of self-contained biological indicators positive for glucosidase enzyme activity (ENZ+) [1, 24]: 0%
percentage of self-contained biological indicators positive for glucosidase enzyme activity (ENZ+) [1, 25]: 100%
percentage of self-contained biological indicators positive for glucosidase enzyme activity (ENZ+) [1, 26]: 100%
percentage of self-contained biological indicators positive for glucosidase enzyme activity (ENZ+) [1, 27]: 33%
percentage of self-contained biological indicators positive for glucosidase enzyme activity (ENZ+) [1, 28]: 0%
percentage of self-contained biological indicators positive for glucosidase enzyme activity (ENZ+) [1, 29]: 0%
percentage of self-contained biological indicators positive for glucosidase enzyme activity (ENZ+) [1, 30]: 0%
percentage of self-contained biological indicators positive for glucosidase enzyme activity (ENZ+) [1, 31]: 100%
percentage of self-contained biological indicators positive for glucosidase enzyme activity (ENZ+) [1, 32]: 100%
percentage of self-contained biological indicators positive for glucosidase enzyme activity (ENZ+) [1, 33]: 0%
percentage of self-contained biological indicators positive for glucosidase enzyme activity (ENZ+) [1, 34]: 0%
percentage of self-contained biological indicators positive for glucosidase enzyme activity (ENZ+) [1, 35]: 0%
percentage of self-contained biological indicators positive for glucosidase enzyme activity (ENZ+) [1, 36]: 0%
percentage of self-contained biological indicators positive for glucosidase enzyme activity (ENZ+) [1, 37]: 100%
percentage of self-contained biological indicators positive for glucosidase enzyme activity (ENZ+) [1, 38]: 67%
percentage of self-contained biological indicators positive for glucosidase enzyme activity (ENZ+) [1, 39]: 0%
percentage of self-contained biological indicators positive for glucosidase enzyme activity (ENZ+) [1, 40]: 0%
percentage of self-contained biological indicators positive for glucosidase enzyme activity (ENZ+) [1, 41]: 0%
percentage of self-contained biological indicators positive for glucosidase enzyme activity (ENZ+) [1, 42]: 0%
sensitivity of the biological indicator to the sterilization process relative to the control with no additives ([2]; Example 2 / Comparative Example 1 (Table 4), fluorescence and growth readouts): increased sensitivity (decreased resistance)
sensitivity of the spores to the damaging/lethal effects of the sterilization process relative to the control with no additives ([2]; Example 3 (Table 5), fluorescence and growth readouts): increased sensitivity
percentage of self-contained biological indicators positive for growth (GRO+) [2, 3]: 100%
percentage of self-contained biological indicators positive for growth (GRO+) [2, 4]: 0%
percentage of self-contained biological indicators positive for growth (GRO+) [2, 5]: 0%
percentage of self-contained biological indicators positive for growth (GRO+) [2, 6]: 0%
percentage of self-contained biological indicators positive for growth (GRO+) [2, 7]: 0%
percentage of self-contained biological indicators positive for growth (GRO+) [2, 8]: 40%
percentage of self-contained biological indicators positive for growth (GRO+) [2, 9]: 0%
percentage of self-contained biological indicators positive for growth (GRO+) [2, 10]: 0%
percentage of self-contained biological indicators positive for growth (GRO+) [2, 11]: 0%
percentage of self-contained biological indicators positive for growth (GRO+) [2, 12]: 0%
percentage of self-contained biological indicators positive for growth (GRO+) [2, 13]: 100%
percentage of self-contained biological indicators positive for growth (GRO+) [2, 14]: 100%
percentage of self-contained biological indicators positive for growth (GRO+) [2, 15]: 0%
percentage of self-contained biological indicators positive for growth (GRO+) [2, 16]: 0%
percentage of self-contained biological indicators positive for growth (GRO+) [2, 17]: 0%
percentage of self-contained biological indicators positive for growth (GRO+) [2, 18]: 0%
percentage of self-contained biological indicators positive for growth (GRO+) [2, 19]: 100%
percentage of self-contained biological indicators positive for growth (GRO+) [2, 20]: 100%
percentage of self-contained biological indicators positive for growth (GRO+) [2, 21]: 0%
percentage of self-contained biological indicators positive for growth (GRO+) [2, 22]: 0%
percentage of self-contained biological indicators positive for growth (GRO+) [2, 23]: 0%
percentage of self-contained biological indicators positive for growth (GRO+) [2, 24]: 0%
percentage of self-contained biological indicators positive for growth (GRO+) [2, 25]: 100%
percentage of self-contained biological indicators positive for growth (GRO+) [2, 26]: 100%
percentage of self-contained biological indicators positive for growth (GRO+) [2, 27]: 0%
percentage of self-contained biological indicators positive for growth (GRO+) [2, 28]: 0%
percentage of self-contained biological indicators positive for growth (GRO+) [2, 29]: 0%
percentage of self-contained biological indicators positive for growth (GRO+) [2, 30]: 0%
percentage of self-contained biological indicators positive for growth (GRO+) [2, 31]: 67%
percentage of self-contained biological indicators positive for growth (GRO+) [2, 32]: 33%
percentage of self-contained biological indicators positive for growth (GRO+) [2, 33]: 0%
percentage of self-contained biological indicators positive for growth (GRO+) [2, 34]: 0%
percentage of self-contained biological indicators positive for growth (GRO+) [2, 35]: 0%
percentage of self-contained biological indicators positive for growth (GRO+) [2, 36]: 0%
percentage of self-contained biological indicators positive for growth (GRO+) [2, 37]: 33%
percentage of self-contained biological indicators positive for growth (GRO+) [2, 38]: 0%
percentage of self-contained biological indicators positive for growth (GRO+) [2, 39]: 0%
percentage of self-contained biological indicators positive for growth (GRO+) [2, 40]: 0%
percentage of self-contained biological indicators positive for growth (GRO+) [2, 41]: 0%
percentage of self-contained biological indicators positive for growth (GRO+) [2, 42]: 0%
